Laboratory results: patent publication US12185720B2, “Chitooligosaccharides and methods for use in enhancing plant growth” (NOVOZYMES BIOAG A/S, priority 2011, dated 2025)

Tests used:
Format in all cases: in vivo
Cotton plants = assay: Cotton foliar experiment (greenhouse); conditions: sprayed at V4 stage with 10^−8 M; grown up to 4 weeks; FIG. 9
Excerpt: Cotton seeds were planted and grown to V4 stage (4 leaved stages) and then were sprayed with 10^−8 M of the LCO illustrated in FIG. 2b (also referred to in the examples as the “Pea LCO”) and the pea CO and then left to grow up to 4 weeks with occasional watering with Hoagland solution. Control plants were sprayed with water.

[1] = tested on: Soybean seeds (Jung seed, var. 8168NRR); assay: Treatment of soybean seed with various actives (greenhouse)
Description: Soybean seeds (Jung seed, var. 8168NRR) were treated with various active molecules. Seeds were treated with a liquid dose rate of 3 fl oz/100 lbs of seed. Seeds were allowed to dry for a 2 hours and planted in greenhouse in plastic pots containing 1:1 sand:perlite mixture. Seedlings were grown for 4 wks with occasional liquid fertilizer applications and then the plants were harvested. The central leaflet from the 2nd trifoliate (from down to top) was isolated and measured for surface area on a WinRhizo scanner. The rest of the plants were used for plant dry weight (DW).

[2] = tested on: Alfalfa (Medicago sativa) seeds; assay: Alfalfa seed germination; conditions: 10^−8 M, FIG. 17
Description: Alfalfa (Medicago sativa) seeds were germinated in petriplates on moist filter paper containing Pea LCO and Pea CO treatment solutions (10^−8 M) and petriplates were kept in the dark at room temperature (22° C.).

Corn seeds [3] = assay: Corn seed germination and root length in petriplates; conditions: 5 days after plating
Description: Corn and wheat seeds were plated in petriplates containing 5 ml of treatment solution on a filter paper. Corn seeds were placed on moist filter paper for germination. Similarly, wheat seeds (spring wheat) were placed in petriplates. […] Roots were harvested and their length measured by WinRhizo system.

[4] = tested on: Green Mung, Lab Lab, Red Lentil and Red Clover seeds; assay: Seed germination in multiple crops, overall; conditions: four crops; dark, 22° C.; FIG. 23
Description: Similar to the seed germination experiment mentioned above, seeds of different crops were placed on moist filter paper in petriplates containing 5 ml liquid in each. Petriplates with seeds were then kept in the dark at 22° C.

[5] = tested on: tomato Var. Royal Mounty seeds; assay: Tomato seedling root growth in petriplates (Example 11); conditions: 22° C.; 5 days in dark; FIG. 24
Description: In petriplate seed germination process, tomato Var. Royal Mounty seeds ware placed on moist filter paper soaked with 5 ml treatment solution. At 22° C. and after 5 days in dark, tomato seedling roots were measured for growth by WinRhizo system.

[6] = tested on: Soybean seeds (Pioneer 9oM80); assay: Soybean seed treatment, radicle length; conditions: after 48 hours, FIG. 25
Description: Soybean seeds (Pioneer 9oM80) were plated in petriplates on moist germination paper soaked with 5 ml of treatment solution containing either water or Soybean LCO, Pea CO and CO plus fatty acids. Seedling radicles were isolated after 48 hours and measured for their length.

Corn seeds [7] = assay: Corn seed application (greenhouse); conditions: seed treatment; CO 10^−8 M, LCO 10^−8 M alone or LCO 10^−9 with CO 10^−8; harvested 10 days after planting; FIG. 28
Description: Corn seeds were treated with various combinations of Pea CO (10^−8 M) and Pea LCO (10^−8, 10^−9 M). Seeds were planted in greenhouse plastic pots containing 1:1 sand:perlite mixture. Seedlings were harvested 10 days after planting, washed clean and then dried in an oven at 60 C for 48 hr.

soybean = assay: Soybean field trials, foliar application, grain yield
corn = assay: Corn field trials, seed application, grain yield

With `CC(=O)NC1C(O)OC(CO)C(OC2OC(CO)C(OC3OC(CO)C(OC4OC(CO)C(OC5OC(CO)C(O)C(O)C5N)C(O)C4NC(C)=O)C(O)C3NC(C)=O)C(O)C2NC(C)=O)C1O` (centres unmarked) [Pea CO] the “more plant fresh weight increase over LCO” value (Cotton plants) was 1.14%, the “plant fresh weights over control” value (Cotton plants) was “significantly increased” and the “plant dry weights (shoot, root or total plant biomass)” value ([1]; another experiment, vs soybean LCO, isoflavonoids, water, FIG. 13) was “highest plant dry weights”. The leaf surface area ([1]; seed treatment 3 fl oz/100 lbs of seed, 4 wks, central leaflet of 2nd trifoliate, vs control (water), FIG. 12) was “significant increase”, the “leaf surface area, among the three actives (pea LCO, pea CO, China CO)” value ([1]; seed treatment, 4 wks, FIG. 12) was “highest leaf surface area” and the “effect on alfalfa seed germination (conclusion)” value [2] was “could positively impact”. The “germination rate at 20 h among control, LCO and CO” value ([2]; dark, 22° C.) was “no difference”, the “more germination over control and LCO at 27 h” value ([2]; dark, 22° C.) was 6% and the corn seed germination (Corn seeds [3]; FIG. 18) was “increased germination”. The “corn seedling root length over control” value (Corn seeds [3]; WinRhizo, FIG. 19) was “significantly increased”, the “overall seed germination compared to Pea LCO” value [4] was “better than Pea LCO” and the “average seedling root length compared to LCO” value [5] was “better than LCO but it was not significantly better”. For the same compound, the “tomato seedling root length as compared to water control” value [5] was “increased root length”, the seedling radicle length [6] was “less effective” and the “corn seedling dry weight” value (Corn seeds [7]) was “increased corn seedling dry weight”. The “YIELD, Mean (N = 19)” value (soybean; soybean foliar at V4 to V5, 8×10^−8 molar, 12 μg/acre, with glyphosate) was 58.2 bu/A, the “YIELD, Response Increase” value (soybean; soybean foliar, 12 μg/acre) was 3 % of Control and the “YIELD, Response Increase” value (soybean; soybean foliar, 12 μg/acre, listed as CO (CO-V)) was 3% of Control. The “YIELD, Response” value (soybean; soybean foliar, 12 μg/acre, over Control) was 1.7 bu/A, the “CO mean yield less than foliar LCO” value (soybean; soybean foliar, CO minus LCO, less) was 0.1 bu/A and the “yield enhancement as a foliar treatment (conclusion)” value (soybean; soybean foliar, CO versus LCO) was “substantially equal yield enhancements”. The “Positive Yield Response” value (soybean; soybean foliar, percent of the 19 trials) was 68.4%, the “YIELD, Response Increase” value (corn) was 3.6 % of Control and the “YIELD, Mean (N = 10)” value (corn; 1×10^−8 molar, 1 μg/acre, 3 fl oz per 50 pounds of seed) was 188.0 bu/A. For the same compound, the “less positive yield responses than LCO” value (corn; amongst the ten trials) was 10.0%, the “CO mean yield less than LCO” value (corn; less) was 4.6 bu/A and the “less yield increase above the Control than LCO” value (corn; less) was 2.5%. The “YIELD, Response” value (corn; over Control) was 6.5 bu/A and the “Positive Yield Response” value (corn; percent of the ten trials) was 80.0%.
